Molecular target: T1, human GPR40 (Homo sapiens, UniProt O14842)
T1 construct: expressed in transfected cells; host or cells: CHO-K1
Experiment: Induction of Ca2+ (calcium flux assay) using human GPR40 expression cell line
Assay type: cell-based
Settings: read-out: EC0.5
How it was run: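 CHO-K1 cells stably transfected with human GPR40, plated 24 h, loaded 1 h at 37° C with Calcium 5 dye in HBSS/HEPES pH 7.4. Intracellular calcium change after compound addition read on FlexStation; concentration–response of relative activity used to derive EC0.5.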

T1 sequence (O14842 whole entry): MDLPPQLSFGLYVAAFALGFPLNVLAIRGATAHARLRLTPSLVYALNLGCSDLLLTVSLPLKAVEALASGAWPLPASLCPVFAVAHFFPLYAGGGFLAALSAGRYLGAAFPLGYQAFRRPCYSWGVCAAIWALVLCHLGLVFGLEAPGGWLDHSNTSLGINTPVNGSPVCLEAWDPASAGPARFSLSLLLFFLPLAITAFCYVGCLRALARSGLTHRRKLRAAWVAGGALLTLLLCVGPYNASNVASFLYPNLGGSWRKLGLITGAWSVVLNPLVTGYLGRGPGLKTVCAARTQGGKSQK

EC50 [nM] | Structure (SMILES)
1 to 50 | CC#C[C@@H](CC(=O)O)c1ccc(OCc2ccc(C)c3c2c(F)nn3CC(C)C)cc1 [Example 213, (S)-3-[4-(3-fluoro-1-isobutyl-7-methyl-1H-indazol-4-ylmethoxy)-phenyl]-hex-4-ynoic acid]
2 | CC#C[C@@H](CC(=O)O)c1ccc(OCc2ccc3c(F)nn(CC)c3c2C)cc1 [Example 214, (S)-3-[4-(1-ethyl-3-fluoro-7-methyl-1H-indazol-6-ylmethoxy)-phenyl]-hex-4-ynoic acid]
10 | CC#C[C@@H](CC(=O)O)c1ccc(OCc2ccc3c(CN4CCOCC4)nn(CC(C)C)c3c2C)cc1 [Example 215, (S)-3-[4-(1-isobutyl-7-methyl-3-morpholin-4-ylmethyl-1H-indazol-6-ylmethoxy)-phenyl]-hex-4-ynoic acid]
6 | CC#C[C@@H](CC(=O)O)c1ccc(OCc2ccc3c(CN4CCOCC4)nn(CC(C)C)c3c2Cl)cc1 [Example 216, (S)-3-[4-(7-chloro-1-isobutyl-3-morpholin-4-ylmethyl-1H-indazol-6-ylmethoxy)-phenyl]-hex-4-ynoic acid]
20 | CC#C[C@@H](CC(=O)O)c1ccc(OCc2ccc3c(CN4CCCC4)nn(CC(C)C)c3c2C)cc1 [Example 217, (S)-3-[4-(1-isobutyl-7-methyl-3-pyrrolidin-1-ylmethyl-1H-indazol-6-ylmethoxy)-phenyl]-hex-4-ynoic acid]
14 | CC#C[C@@H](CC(=O)O)c1ccc(OCc2ccc3c(CN4CCCCC4)nn(CC(C)C)c3c2C)cc1 [Example 218, (S)-3-[4-(1-isobutyl-7-methyl-3-piperidin-1-ylmethyl-1H-indazol-6-ylmethoxy)-phenyl]-hex-4-ynoic acid]
23 | CC#C[C@@H](CC(=O)O)c1ccc(OCc2ccc3c(CN4CCOCC4)nn(CC(C)C)c3c2)cc1 [Example 219, (S)-3-[4-(1-isobutyl-3-morpholin-4-ylmethyl-1H-indazol-6-ylmethoxy)-phenyl]-hex-4-ynoic acid]
3 | CC#C[C@@H](CC(=O)O)c1ccc(OCc2ccc3cnn(C(C)C)c3c2C)cc1 [Example 220, (S)-3-[4-(1-isopropyl-7-methyl-1H-indazol-6-ylmethoxy)-phenyl]-hex-4-ynoic acid]
5 | CC#C[C@@H](CC(=O)O)c1ccc(OCc2ccc3cnn(CCC)c3c2C)cc1 [Example 221, (S)-3-[4-(7-methyl-1-propyl-1H-indazol-6-ylmethoxy)-phenyl]-hex-4-ynoic acid]
5 | CC#C[C@@H](CC(=O)O)c1ccc(OCc2ccc3c(CF)nn(CC(C)C)c3c2C)cc1 [Example 222, (S)-3-[4-(3-fluoromethyl-1-isobutyl-7-methyl-1H-indazol-6-ylmethoxy)-phenyl]-hex-4-ynoic acid]
11 | CC#C[C@@H](CC(=O)O)c1ccc(OCc2ccc(C)c3c2cnn3C(C)C)cc1 [Example 223, (S)-3-[4-(1-isopropyl-7-methyl-1H-indazol-4-ylmethoxy)-phenyl]-hex-4-ynoic acid]
27 | CC#C[C@@H](CC(=O)O)c1ccc(OCc2ccnc3c2ccn3C(C)C)cc1 [Example 224, (S)-3-[4-(1-isopropyl-1H-pyrrolo[2,3-b]pyridin-4-ylmethoxy)-phenyl]-hex-4-ynoic acid]
13 | CC#C[C@@H](CC(=O)O)c1ccc(OCc2ccnc3c2c(F)cn3CC(C)C)cc1 [Example 225, (S)-3-[4-(3-fluoro-1-isobutyl-1H-pyrrolo[2,3-b]pyridin-4-ylmethoxy)-phenyl]-hex-4-ynoic acid]
9 | CC#C[C@@H](CC(=O)O)c1ccc(OCc2ccc3cnn(Cc4cccnc4)c3c2C)cc1 [Example 226, (S)-3-[4-(7-methyl-1-pyridin-3-ylmethyl-1H-indazol-6-ylmethoxy)-phenyl]-hex-4-ynoic acid]
5 | CC#C[C@@H](CC(=O)O)c1ccc(OCc2ccc3c(CN4CCCC(F)(F)C4)nn(CC(C)C)c3c2C)cc1 [Example 227, (S)-3-{4-[3-(3,3-difluoro-piperidin-1-ylmethyl)-1-isobutyl-7-methyl-1H-indazol-6-ylmethoxy]-phenyl}-hex-4-ynoic acid]
1 to 50 | CC#C[C@@H](CC(=O)O)c1ccc(OCc2ccc3c(Cn4cccn4)nn(CC(C)C)c3c2C)cc1 [Example 228, (S)-3-[4-(1-isobutyl-7-methyl-3-pyrazol-1-ylmethyl-1H-indazol-6-ylmethoxy)-phenyl]-hex-4-ynoic acid]
35 | CC#C[C@@H](CC(=O)O)c1ccc(OCc2ccc3c(CN4CC[C@H](F)C4)nn(CC(C)C)c3c2C)cc1 [Example 229, (S)-3-{4-[3-((S)-3-fluoro-pyrrolidin-1-ylmethyl)-1-isobutyl-7-methyl-1H-indazol-6-ylmethoxy]-phenyl}-hex-4-ynoic acid]
1 to 50 | CC#C[C@@H](CC(=O)O)c1ccc(OCc2ccc3c(CN4CCC(F)(F)C4)nn(CC(C)C)c3c2C)cc1 [Example 230, (S)-3-{4-[3-(3,3-difluoro-pyrrolidin-1-ylmethyl)-1-isobutyl-7-methyl-1H-indazol-6-ylmethoxy]-phenyl}-hex-4-ynoic acid]
1 to 50 | CC#C[C@@H](CC(=O)O)c1ccc(OCc2ccc3c(CN4CCC(F)(F)C4)cn(CC(C)C)c3n2)cc1 [Example 231, (S)-3-{4-[3-(3,3-difluoro-pyrrolidin-1-ylmethyl)-1-isobutyl-1H-pyrrolo[2,3-b]pyridin-6-ylmethoxy]-phenyl}-hex-4-ynoic acid]
12 | CC#C[C@@H](CC(=O)O)c1ccc(OCc2ccc3c(CN4CCCC(F)(F)C4)cn(CC(C)C)c3n2)cc1 [Example 232, (S)-3-{4-[3-(3,3-difluoro-piperidin-1-ylmethyl)-1-isobutyl-1H-pyrrolo[2,3-b]pyridin-6-ylmethoxy]-phenyl}-hex-4-ynoic acid]
